Where two headings read alike, the source gives them in different places. Marks after values point to notes of the source that are not given here. Values belong to the compound of their own block, whether it stands above or below them.
Columns and labels:
[1] = filgotinib 100 mg QD for 10 days
JAK1 = conditions: cited from earlier work
[2] = cited from earlier work; for Fraction excreted in the urine: in humans, filgotinib unchanged, metabolite as such
[3] = Effect of renal impairment; conditions: for Ae0–24 h (amount excreted in the urine over 24 h) / AUC(0-t) / CL renal / tmax / half-life / AUC0–24 h / CLR (renal clearance) / t½,λz (apparent terminal half-life) / R (metabolite-to-parent ratio, AUC0–24 h): 100 mg QD; for Ae0–24 h (amount excreted in the urine over 24 h) / AUC(0-t) / CL renal / half-life / AUC0–24 h / CLR (renal clearance) / t½,λz (apparent terminal half-life) / Cmax: arithmetic mean (CV%); for AUC(0-t): AUC0–24 h; for CL renal: CLR (renal clearance); for tmax: median (min–max); for half-life: t½,λz (apparent terminal half-life); for CLR lower (drop) compared with subjects with normal renal function: severe RI vs normal renal function; for R (metabolite-to-parent ratio, AUC0–24 h): geometric mean (CV%); for Cmax: filgotinib 100 mg QD 10 days, tablet, fasted
[4] = for Ae0–24 h (amount excreted in the urine over 24 h) / AUC(0-t) / CL renal / half-life / AUC0–24 h / CLR (renal clearance) / t½,λz (apparent terminal half-life) / Cmax: arithmetic mean (CV%); for AUC(0-t): AUC0–24 h; for CL renal: CLR (renal clearance); for half-life: t½,λz (apparent terminal half-life); for Time to steady state: predose (trough) concentrations, regardless of the age group; for R (metabolite-to-parent ratio, AUC0–24 h): geometric mean (CV%); for Cmax: filgotinib 100 mg QD 10 days, capsule, fed, N = 10
[5] = both, human, in vivo, 100 mg, day 10, mild RI
[6] = both, human, in vivo, 100 mg, day 10, moderate RI
[7] = both, human, in vivo, 100 mg, day 10, normal renal function
[8] = both, human, in vivo, 100 mg, day 10, severe RI
[9] = 100 mg QD, day 10, age 40–50 years
[10] = 100 mg QD, day 10, age 65–74 years
[11] = 100 mg QD, day 10, age 65–74 years, median (min–max)
[12] = 100 mg QD, day 10, age ≥75 years
[13] = 100 mg QD, day 10, age ≥75 years, median (min–max)
[14] = both, human, in vivo, 100 mg, 100 mg QD, day 10, age 40–50 years
[15] = both, human, in vivo, 100 mg, 100 mg QD, day 10, age 65–74 years
[16] = both, human, in vivo, 100 mg, 100 mg QD, day 10, age ≥75 years
[17] = ≥75 years relative to 40–50 years, point estimate [90% CI]

Ae0–24 h (amount excreted in the urine over 24 h) ([3]; day 10, mild RI): 5.37 (42.1) % dose
Ae0–24 h (amount excreted in the urine over 24 h) ([3]; day 10, moderate RI): 4.34 (51.2) % dose
Ae0–24 h (amount excreted in the urine over 24 h) ([3]; day 10, normal renal function): 7.61 (35.4) % dose
Ae0–24 h (amount excreted in the urine over 24 h) ([3]; day 10, severe RI): 2.08 (34) % dose
Steady state in plasma reached by ([3]; all renal function groups): ≤ 2 days
AUC(0-t) [3, 5]: 1890 ng·h/mL
AUC(0-t) [3, 6]: 2690 ng·h/mL
AUC(0-t) [3, 7]: 1820 ng·h/mL
AUC(0-t) [3, 8]: 2640 ng·h/mL
CL renal [3, 5]: 49.2 mL/min
CL renal [3, 6]: 31.5 mL/min
CL renal [3, 7]: 74.2 mL/min
CL renal [3, 8]: 15 mL/min
tmax ([3]; both, human, in vivo, 100 mg, tmax, day 10, moderate RI): 0.6 h
tmax ([3]; both, human, in vivo, 100 mg, tmax, day 10, normal renal function): 0.8 h
half-life [3, 6]: 10.6 h
half-life [3, 7]: 5.42 h
half-life [3, 8]: 9.03 h
Time after dosing at which Cmax was reached ([3]; day 10): 1 h
CLR lower (drop) compared with subjects with normal renal function [3]: 80%
Ae0–24 h (amount excreted in the urine over 24 h) [4, 9]: 8.01 (26.5) ^b % dose
Ae0–24 h (amount excreted in the urine over 24 h) ([4]; 100 mg QD, day 10, age 40–50 years, listed as filgotinib): 8.01 % dose
Ae0–24 h (amount excreted in the urine over 24 h) [4, 10]: 6.55 (14.3) ^c % dose
Ae0–24 h (amount excreted in the urine over 24 h) ([4]; 100 mg QD, day 10, age 65–74 years, listed as filgotinib): 6.55 % dose
tmax [4, 11]: 2.0 (0.5–3.0) h
Ae0–24 h (amount excreted in the urine over 24 h) [4, 12]: 7.24 (16.9) ^b % dose
Ae0–24 h (amount excreted in the urine over 24 h) ([4]; 100 mg QD, day 10, age ≥75 years, listed as filgotinib): 7.24 % dose
tmax [4, 13]: 2.0 (0.5–3.0) h
tmax ([4]; both, human, in vivo, 100 mg): 2 h
AUC(0-t) [4, 14]: 1600 ng·h/mL
AUC(0-t) [4, 15]: 1790 ng·h/mL
AUC(0-t) [4, 16]: 2220 ng·h/mL
CL renal [4, 14]: 92.5 mL/min
CL renal [4, 15]: 65 mL/min
CL renal [4, 16]: 55.5 mL/min
half-life [4, 14]: 6.07 h
half-life [4, 15]: 5.83 h
half-life [4, 16]: 6.9 h
Time to steady state [4]: steady state by the second dosing day
Fold-change in steady-state AUC0–24 h [4, 17]: 1.40 fold
SMILES: O=C(Nc1nc2cccc(-c3ccc(CN4CCS(=O)(=O)CC4)cc3)n2n1)C1CC1 [Filgotinib]
Safety and tolerability [1]: generally safe and well tolerated
Selectivity for JAK1 over JAK2 (JAK1; in human whole blood): 30 times
Impact of food on bioavailability [2]: no impact
Fraction excreted in the urine ([2]; no reference given): < 10%
Eliminated in urine (filgotinib and its metabolites) ([2]; no reference given): > 80%

AUC0–24 h ([3]; day 10, mild RI): 30.1 (29.3) μg.h ml^–1
Ae0–24 h (amount excreted in the urine over 24 h) ([3]; day 10, mild RI): 35.7 (40.3) % dose
CLR (renal clearance) ([3]; day 10, mild RI): 1.21 (42.1) l h^–1
t½,λz (apparent terminal half-life) ([3]; day 10, mild RI): 25.4 (24.8) h
R (metabolite-to-parent ratio, AUC0–24 h) ([3]; day 10, mild RI): 15.9 (22.0)
tmax ([3]; day 10, mild RI): 3.3 (1.5–5) h
AUC0–24 h ([3]; day 10, moderate RI): 42.7 (38.4) μg.h ml^–1
Ae0–24 h (amount excreted in the urine over 24 h) ([3]; day 10, moderate RI): 29.9 (24.1) % dose
CLR (renal clearance) ([3]; day 10, moderate RI): 0.781 (47.8) l h^–1
t½,λz (apparent terminal half-life) ([3]; day 10, moderate RI): 31.7 (24.9) h
R (metabolite-to-parent ratio, AUC0–24 h) ([3]; day 10, moderate RI): 16.7 (35.8)
tmax ([3]; day 10, moderate RI): 2.3 (0.5–5) h
AUC0–24 h ([3]; day 10, normal renal function): 24.9 (31.7) μg.h ml^–1
Ae0–24 h (amount excreted in the urine over 24 h) ([3]; day 10, normal renal function): 37.4 (11.6) % dose
CLR (renal clearance) ([3]; day 10, normal renal function): 1.59 (24.5) l h^–1
t½,λz (apparent terminal half-life) ([3]; day 10, normal renal function): 20.8 (17.1) h
R (metabolite-to-parent ratio, AUC0–24 h) ([3]; day 10, normal renal function): 13.8 (21.5)
tmax ([3]; day 10, normal renal function): 3 (2–4) h
AUC0–24 h ([3]; day 10, severe RI): 66.6 (18.5) μg.h ml^–1
Ae0–24 h (amount excreted in the urine over 24 h) ([3]; day 10, severe RI): 32.1 (9.36) % dose
CLR (renal clearance) ([3]; day 10, severe RI): 0.488 (10.6) l h^–1
t½,λz (apparent terminal half-life) ([3]; day 10, severe RI): 43.6 (12.6) h
R (metabolite-to-parent ratio, AUC0–24 h) ([3]; day 10, severe RI): 26.0 (20.4)
tmax ([3]; day 10, severe RI): 3 (3–4) h
Cmax ([3]; day 10, mild RI, N = 6): 1.54 (31.3) μg ml^–1
Cmax ([3]; day 10, moderate RI, N = 6): 2.35 (35.4) μg ml^–1
Cmax ([3]; day 10, normal renal function, N = 9): 1.63 (31.9) μg ml^–1
Cmax ([3]; day 10, severe RI, N = 3): 3.43 (14.6) μg ml^–1
CLR drop compared with subjects with normal renal function ([3]; moderate RI vs normal renal function): 51%
Steady-state plasma concentrations reached ([3]; moderate and severe RI): 5 days
Steady-state plasma concentrations reached ([3]; normal renal function and mild RI): 3 days
CLR lower (drop) compared with subjects with normal renal function [3]: 69%
AUC0–24 h [4, 9]: 29.4 (27.3) μg.h ml^–1
Ae0–24 h (amount excreted in the urine over 24 h) [4, 9]: 34.3 (22.3) ^b % dose
CLR (renal clearance) [4, 9]: 1.25 (19.3) ^b l h^–1
t½,λz (apparent terminal half-life) [4, 9]: 17.8 (17.9) h
Ae0–24 h (amount excreted in the urine over 24 h) ([4]; 100 mg QD, day 10, age 40–50 years, listed as metabolite): 34.3 % dose
R (metabolite-to-parent ratio, AUC0–24 h) [4, 9]: 18.8 (25.1)
tmax ([4]; 100 mg QD, day 10, age 40–50 years, median (min–max)): 4.0 (2.0–5.0) h
AUC0–24 h [4, 10]: 34.2 (17.3) μg.h ml^–1
Ae0–24 h (amount excreted in the urine over 24 h) [4, 10]: 37.4 (13.2) ^c % dose
CLR (renal clearance) [4, 10]: 1.13 (20.9) ^c l h^–1
t½,λz (apparent terminal half-life) [4, 10]: 24.7 (23.3) h
R (metabolite-to-parent ratio, AUC0–24 h) [4, 10]: 19.4 (22.0)
tmax [4, 11]: 3.0 (3.0–5.0) h
AUC0–24 h [4, 12]: 40.9 (21.9) μg.h ml^–1
Ae0–24 h (amount excreted in the urine over 24 h) [4, 12]: 37.6 (15.4) ^b % dose
CLR (renal clearance) [4, 12]: 0.926 (29.5) ^b l h^–1
t½,λz (apparent terminal half-life) [4, 12]: 23.5 (21.2) h
Ae0–24 h (amount excreted in the urine over 24 h) ([4]; 100 mg QD, day 10, age ≥75 years, listed as metabolite): 37.6 % dose
R (metabolite-to-parent ratio, AUC0–24 h) [4, 12]: 18.4 (16.4)
tmax [4, 13]: 5.0 (3.0–5.0) h
Cmax ([4]; day 10, age 40–50 years): 1.69 (26.5) μg ml^–1
Cmax ([4]; day 10, age 65–74 years): 1.90 (15.5) μg ml^–1
Cmax ([4]; day 10, age ≥75 years): 2.20 (19.4) μg ml^–1
Apparent elimination half-life across age groups ([4]; mean over the three age groups): approximately 22 h
Time to steady state [4]: ≤ 4 dosing days
Fold-change in steady-state AUC0–24 h [4, 17]: 1.33 fold
Fold-change in steady-state Cmax [4, 17]: 1.25 fold
SMILES: Nc1nc2cccc(-c3ccc(CN4CCS(=O)(=O)CC4)cc3)n2n1 [Metabolite]
Reduced potency versus filgotinib (JAK1; human whole-blood assay): 19 fold
Fraction excreted in the urine ([2]; no reference given): ≥ 50%

Source: PMC6256002 (British Journal of Clinical Pharmacology, 2018)
